{
  "source": "ChEMBL document CHEMBL1201862",
  "about": "“PubChem BioAssay data set” (2004)",
  "key": {"[1]": {"target": "Cytochrome P450 2C19 (Homo sapiens, UniProt P33261)", "sequence (P33261 whole entry)": "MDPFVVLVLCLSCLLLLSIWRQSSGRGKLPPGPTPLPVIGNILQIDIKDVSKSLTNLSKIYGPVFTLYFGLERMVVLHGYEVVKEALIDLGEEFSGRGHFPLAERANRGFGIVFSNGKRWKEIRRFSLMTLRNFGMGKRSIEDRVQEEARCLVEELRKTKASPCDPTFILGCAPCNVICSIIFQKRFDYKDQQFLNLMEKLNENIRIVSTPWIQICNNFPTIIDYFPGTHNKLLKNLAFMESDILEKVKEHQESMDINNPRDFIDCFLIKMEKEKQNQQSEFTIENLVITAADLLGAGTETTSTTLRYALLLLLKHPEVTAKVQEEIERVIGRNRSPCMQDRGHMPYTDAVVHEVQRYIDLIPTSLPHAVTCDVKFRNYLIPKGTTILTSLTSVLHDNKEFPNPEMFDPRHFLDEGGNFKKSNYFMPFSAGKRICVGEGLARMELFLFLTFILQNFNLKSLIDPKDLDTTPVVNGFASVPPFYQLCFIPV", "experiment": "Cytochrome panel assay with activity outcomes. Panel member name: p450-cyp2c19 Compounds with AC50 equal or less than 10 uM are considered active", "assay_type": "functional"}, "[2]": {"target": "Cytochrome P450 2D6 (Homo sapiens, UniProt P10635)", "sequence (P10635 whole entry)": "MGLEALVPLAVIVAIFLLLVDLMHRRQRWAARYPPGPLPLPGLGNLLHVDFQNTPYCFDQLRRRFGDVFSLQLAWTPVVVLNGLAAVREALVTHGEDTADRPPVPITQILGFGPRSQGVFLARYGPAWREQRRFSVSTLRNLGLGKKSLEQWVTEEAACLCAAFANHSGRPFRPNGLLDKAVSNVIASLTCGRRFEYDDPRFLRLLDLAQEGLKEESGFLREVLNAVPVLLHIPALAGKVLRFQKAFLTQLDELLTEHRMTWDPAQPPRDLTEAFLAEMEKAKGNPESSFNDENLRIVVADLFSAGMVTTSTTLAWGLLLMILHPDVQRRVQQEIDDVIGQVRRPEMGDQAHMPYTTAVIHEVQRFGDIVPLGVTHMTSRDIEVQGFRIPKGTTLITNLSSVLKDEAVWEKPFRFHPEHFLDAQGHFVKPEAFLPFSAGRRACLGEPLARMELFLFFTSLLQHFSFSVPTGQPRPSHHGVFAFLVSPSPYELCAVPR"}, "[3]": {"target": "T1, Corticotropin-releasing factor receptor 2/Corticotropin-releasing factor-binding protein (Homo sapiens, UniProt P24387+Q13324)", "T1 sequence (Q13324 whole entry)": "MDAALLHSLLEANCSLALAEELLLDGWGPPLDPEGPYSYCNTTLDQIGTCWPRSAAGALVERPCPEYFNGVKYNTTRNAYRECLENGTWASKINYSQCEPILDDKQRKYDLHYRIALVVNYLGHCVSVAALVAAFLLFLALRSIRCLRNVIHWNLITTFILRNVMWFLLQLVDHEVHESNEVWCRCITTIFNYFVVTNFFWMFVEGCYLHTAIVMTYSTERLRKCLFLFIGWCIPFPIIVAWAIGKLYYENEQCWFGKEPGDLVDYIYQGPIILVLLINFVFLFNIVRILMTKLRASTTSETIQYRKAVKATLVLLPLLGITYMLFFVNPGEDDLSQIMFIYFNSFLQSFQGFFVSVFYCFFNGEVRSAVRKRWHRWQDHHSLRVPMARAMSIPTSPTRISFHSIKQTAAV", "T1 sequence (P24387 whole entry)": "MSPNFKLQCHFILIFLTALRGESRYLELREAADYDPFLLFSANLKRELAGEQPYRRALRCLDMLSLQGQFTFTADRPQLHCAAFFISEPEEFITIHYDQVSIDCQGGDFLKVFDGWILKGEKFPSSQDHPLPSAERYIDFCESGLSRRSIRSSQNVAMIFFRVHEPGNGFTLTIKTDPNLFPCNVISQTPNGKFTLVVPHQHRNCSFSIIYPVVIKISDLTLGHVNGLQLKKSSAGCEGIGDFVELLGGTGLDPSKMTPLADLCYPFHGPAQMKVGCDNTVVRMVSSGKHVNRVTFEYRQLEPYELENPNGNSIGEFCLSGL", "experiment": "activators of CRF receptor 2 with binding protein – uHTS hits, confirmation (AID 602473)", "assay_type": "functional", "conditions": "read-out: EC50_Mean"}, "[4]": {"target": "T2, Cytochrome P450 1A2 (Homo sapiens, UniProt P05177)", "T2 sequence (P05177 whole entry)": "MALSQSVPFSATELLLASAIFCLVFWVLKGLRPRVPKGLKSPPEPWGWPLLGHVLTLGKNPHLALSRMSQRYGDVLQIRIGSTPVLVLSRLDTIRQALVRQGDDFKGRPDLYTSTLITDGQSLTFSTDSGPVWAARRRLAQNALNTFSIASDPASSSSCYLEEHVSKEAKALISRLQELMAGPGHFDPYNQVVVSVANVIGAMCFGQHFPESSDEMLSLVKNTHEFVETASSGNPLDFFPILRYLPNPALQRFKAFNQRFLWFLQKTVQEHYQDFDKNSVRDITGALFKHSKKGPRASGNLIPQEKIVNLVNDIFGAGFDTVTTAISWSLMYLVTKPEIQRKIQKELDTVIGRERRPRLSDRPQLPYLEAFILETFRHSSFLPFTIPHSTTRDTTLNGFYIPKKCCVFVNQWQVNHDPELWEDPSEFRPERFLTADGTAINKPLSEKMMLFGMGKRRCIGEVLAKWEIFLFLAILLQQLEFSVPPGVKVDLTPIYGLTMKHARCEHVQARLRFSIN"}, "[5]": {"target": "T1, Corticotropin-releasing factor receptor 2/Corticotropin-releasing factor-binding protein", "experiment": "Dose Response confirmation of uHTS hits for small molecule antagonists of the CRF-binding protein and CRF-R2 receptor complex.", "assay_type": "functional", "conditions": "read-out: IC50_Mean"}, "[6]": {"target": "Cytochrome P450 2C9 (Homo sapiens, UniProt P11712)", "sequence (P11712 whole entry)": "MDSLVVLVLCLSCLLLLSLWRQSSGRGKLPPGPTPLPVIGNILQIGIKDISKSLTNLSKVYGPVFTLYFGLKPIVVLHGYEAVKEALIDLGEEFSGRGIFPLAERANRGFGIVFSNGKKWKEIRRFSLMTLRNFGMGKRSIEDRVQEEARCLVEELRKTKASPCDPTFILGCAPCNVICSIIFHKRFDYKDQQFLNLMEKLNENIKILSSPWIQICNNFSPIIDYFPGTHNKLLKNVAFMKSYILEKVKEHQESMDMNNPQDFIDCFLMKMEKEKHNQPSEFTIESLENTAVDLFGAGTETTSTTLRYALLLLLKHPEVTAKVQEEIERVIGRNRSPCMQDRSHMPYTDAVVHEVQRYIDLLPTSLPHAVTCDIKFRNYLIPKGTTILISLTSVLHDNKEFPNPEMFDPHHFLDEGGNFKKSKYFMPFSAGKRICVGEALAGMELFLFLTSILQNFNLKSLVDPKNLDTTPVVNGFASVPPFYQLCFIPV"}, "[7]": {"experiment": "Luminescence Cell-Based Dose Confirmation HTS to Identify Activators of 5'UTR Stem-Loop Driven Alpha-Synuclein mRNA Translation in H4 Neuroglioblastoma Cells. [Related pubchem assays: 1829 (Project Summary), 1814 (Primary HTS)]", "assay_type": "functional"}, "[8]": {"tested_on": "H4", "experiment": "Luminescence Cell-Based Dose Response HTS to Identify Activators of 5'UTR Stem-Loop Driven Prion Protein mRNA Translation in H4 Neuroglioblastoma Cells. [Related pubchem assays: 1829 (Project Summary), 1814 (Primary HTS)]", "assay_type": "functional", "conditions": "Homo sapiens"}, "[9]": {"experiment": "Luminescence Cell-Based Dose Response HTS to Identify Activators of Luciferase Translation or Activity in H4 […] Cells. [Related pubchem assays: 1829 (Project Summary), 1814 (Primary HTS)]", "assay_type": "functional"}},
  "note": "Calls of active or inactive are those of the source.",
  "data": [
    {"smiles": "Clc1ccc2c(N[C@H]3CC[C@H](N4CCCCC4)CC3)ccnc2c1", "values": [
      {"measurement": "AC50", "setting": "[1]", "value": "inconclusive"},
      {"measurement": "AC50", "setting": "[2]", "value": "3.98 µM (inconclusive)"}
    ]},
    {"smiles": "CC1(O)c2ccccc2C(=O)N1CCc1ccccc1F", "note": "(centres undefined)", "values": [
      {"measurement": "EC50", "setting": "[3]", "value": "> 53 µM (inactive)"},
      {"measurement": "AC50", "setting": "[4]", "value": "20 µM (inconclusive)"},
      {"measurement": "IC50", "setting": "[5]", "value": "> 47.1 µM (inactive)"},
      {"measurement": "AC50", "setting": "[2]", "value": "28.2 µM (inconclusive)"}
    ]},
    {"smiles": "COc1ccc(Cc2c(N)nc(N)nc2N)cc1", "values": [
      {"measurement": "AC50", "setting": "[2]", "value": "17.8 µM (inconclusive)"}
    ]},
    {"smiles": "CCC(=O)N1CCn2c1nc1ccccc12", "values": [
      {"measurement": "AC50", "setting": "[1]; read-out: AC50", "value": "28.2 µM (inconclusive)"},
      {"measurement": "AC50", "setting": "[6]", "value": "1.41 µM (inconclusive)"}
    ]},
    {"smiles": "Cc1ccc(C)c(C(=N)c2ccccc2Cc2ccccc2)c1", "values": [
      {"measurement": "AC50", "setting": "[2]", "value": "3.16 µM (inconclusive)"}
    ]},
    {"smiles": "Cc1cc(O)c(C(C)C)cc1CN1CCCCC1", "values": [
      {"measurement": "AC50", "setting": "[4]", "value": "1 µM (inconclusive)"},
      {"measurement": "AC50", "setting": "[2]", "value": "3.98 µM (inconclusive)"}
    ]},
    {"smiles": "CCN1CCN(c2nc3c(c(=O)[nH]c(=O)n3C)n2CCCSc2ncccn2)CC1", "values": [
      {"measurement": "AC50", "setting": "[1]", "value": "inconclusive"}
    ]},
    {"smiles": "CCCCc1[nH]nc2c1/C(=N/O)CC(c1ccccc1)C2", "note": "(centres undefined)", "values": [
      {"measurement": "AC50", "setting": "[2]", "value": "14.1 µM (inconclusive)"}
    ]},
    {"smiles": "C=CCSc1nnc2c(n1)OC(c1c(C)[nH]n(-c3ccccc3)c1=O)Nc1ccccc1-2", "note": "(centres undefined)", "values": [
      {"measurement": "AC50", "setting": "[1]; read-out: AC50", "value": "8.91 µM (inconclusive)"},
      {"measurement": "AC50", "setting": "[4]", "value": "15.8 µM (inconclusive)"},
      {"measurement": "AC50", "setting": "[2]", "value": "0.158 µM (inconclusive)"}
    ]},
    {"smiles": "CCOc1nc(NCc2ccco2)nc(Nc2ccccc2F)n1", "values": [
      {"measurement": "EC50", "setting": "[7]", "value": "6.54 µM (active)"},
      {"measurement": "EC50", "setting": "[8]", "value": "69.9 µM (active)"},
      {"measurement": "EC50", "setting": "[9]", "value": "12.9 µM (active)"}
    ]},
    {"smiles": "FC(F)(F)c1nc2ccccc2nc1N/N=C\\c1ccccc1", "values": [
      {"measurement": "AC50", "setting": "[1]; read-out: AC50", "value": "39.8 µM (inconclusive)"},
      {"measurement": "AC50", "setting": "[6]", "value": "20 µM (inconclusive)"},
      {"measurement": "AC50", "setting": "[2]", "value": "14.1 µM (inconclusive)"}
    ]},
    {"smiles": "O=C(Nc1nnc(S(=O)(=O)N2CCOCC2)s1)c1cccc(F)c1", "values": [
      {"measurement": "EC50", "setting": "[7]", "value": "17.8 µM (active)"},
      {"measurement": "EC50", "setting": "[8]", "value": "14.6 µM (active)"},
      {"measurement": "EC50", "setting": "[9]", "value": "9.48 µM (active)"}
    ]},
    {"smiles": "O=C(OCn1nnc2ccccc2c1=O)c1cccnc1", "values": [
      {"measurement": "AC50", "setting": "[1]; read-out: AC50", "value": "25.1 µM (inconclusive)"},
      {"measurement": "AC50", "setting": "[4]", "value": "17.8 µM (inconclusive)"},
      {"measurement": "AC50", "setting": "[6]", "value": "25.1 µM (inconclusive)"}
    ]},
    {"smiles": "Cc1nc2nc(NC(=O)c3ccco3)nn2c(C)c1Cl", "values": [
      {"measurement": "EC50", "setting": "[7]", "value": "0.817 µM (active)"},
      {"measurement": "EC50", "setting": "[8]", "value": "15.5 µM (active)"},
      {"measurement": "EC50", "setting": "[9]", "value": "14.3 µM (active)"}
    ]},
    {"smiles": "COC(=O)[C@@]1(Cc2ccccc2)[C@H]2c3cc(C(=O)N4CCCC4)n(Cc4ccc(C)o4)c3C[C@H]2CN1C(=O)c1ccccc1", "values": [
      {"measurement": "AC50", "setting": "[4]", "value": "12.6 µM (inconclusive)"},
      {"measurement": "AC50", "setting": "[2]", "value": "39.8 µM (inconclusive)"}
    ]}
  ]
}
